Where two headings read alike, the source gives them in different places.

Data on 13 compounds can be found in US20240116985A1, “STAPLED PEPTIDES AND METHODS THEREOF” (priority 2020, published 2024).

Data set [1] deals with T1, full-length beta-Catenin (Uniprot ID P35222) (Homo sapiens, UniProt P35222).
T1 construct: 10 nM full-length beta-Catenin (Uniprot ID P35222)
T1 sequence (P35222 1-781): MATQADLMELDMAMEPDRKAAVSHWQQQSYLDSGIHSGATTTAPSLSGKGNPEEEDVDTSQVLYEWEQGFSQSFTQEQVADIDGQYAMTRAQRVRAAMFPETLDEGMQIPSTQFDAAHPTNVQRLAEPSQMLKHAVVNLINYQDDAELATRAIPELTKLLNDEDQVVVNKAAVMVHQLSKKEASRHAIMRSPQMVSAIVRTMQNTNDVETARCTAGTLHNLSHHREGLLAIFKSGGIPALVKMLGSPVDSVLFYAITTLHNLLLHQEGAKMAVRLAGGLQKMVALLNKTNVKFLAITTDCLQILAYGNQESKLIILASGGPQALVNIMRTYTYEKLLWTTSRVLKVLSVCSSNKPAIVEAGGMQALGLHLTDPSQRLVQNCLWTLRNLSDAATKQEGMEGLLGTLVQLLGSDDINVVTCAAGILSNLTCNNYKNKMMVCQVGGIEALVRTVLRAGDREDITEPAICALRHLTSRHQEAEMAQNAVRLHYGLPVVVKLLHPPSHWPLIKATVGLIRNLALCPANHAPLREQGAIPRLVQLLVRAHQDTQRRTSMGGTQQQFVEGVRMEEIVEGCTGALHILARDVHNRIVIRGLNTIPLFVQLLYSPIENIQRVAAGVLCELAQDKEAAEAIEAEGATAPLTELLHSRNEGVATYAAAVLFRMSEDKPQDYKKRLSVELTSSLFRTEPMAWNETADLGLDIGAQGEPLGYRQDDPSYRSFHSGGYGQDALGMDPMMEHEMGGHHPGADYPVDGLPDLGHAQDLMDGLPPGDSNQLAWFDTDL
Description: Fluorescence polarization IC50 (beta-catenin / 5FAM-TCF4 10-53 competition). The class given is binding.

Data set [2] is described as follows: CHI Log D procedure. The class given is physicochemical. The conditions noted are these: for CHI Log D: pH 7.4; for chromatographic logD: pH 7.4, CHI Log D.
Setting [3] is: fluorescence polarization, read-out: beta-Catenin FP IC50.

For `CC(=O)N1CCC[C@]12CC=CCCCC1(CCCC=CCCCCCC[C@@](C)(C(=O)N[C@@H](Cc3ccccc3)C(=O)N[C@@H](Cc3csc4ccccc34)C(=O)N[C@@H](Cc3c[nH]cn3)C(N)=O)NC(=O)[C@H](CCC(N)=O)NC(=O)[C@H](Cc3ccccc3)NC(=O)[C@H](C)NC(=O)[C@H](C)NC(=O)[C@H](CCC(=O)O)NC(=O)[C@H](CC(=O)O)NC1=O)NC(=O)[C@H](C)NC(=O)[C@H](CC(=O)O)NC2=O` (stereo partly drawn) [I-419, Ac-PL3-Asp-Ala-B5-Asp-Glu-Ala-Ala-Phe-Gln-S8-Phe-BztA-His-NH2], the IC50 in data set [1] (setting [3]) and in data set [1] (read-out: FP EC50) was 23 nM in each case. Also, the “CHI Log D” value in data set [2] came to 2.114.
Usually chromatographic logD stands for lipophilicity estimated from chromatographic retention. A higher chromatographic logD goes with a more lipophilic compound. Consider `CC(=O)N1CCC[C@]12CC=CCCCC1(CCCC=CCCCCCC[C@@](C)(C(=O)N[C@@H](Cc3cccc(F)c3)C(=O)N[C@@H](Cc3csc4ccccc34)C(=O)N[C@@H](Cc3c[nH]cn3)C(N)=O)NC(=O)[C@H](CCC(N)=O)NC(=O)[C@H](Cc3ccsc3)NC(=O)[C@H](C)NC(=O)[C@H](C)NC(=O)[C@H](CCC(=O)O)NC(=O)[C@H](CC(=O)O)NC1=O)NC(=O)[C@H](C)NC(=O)[C@H](CC(=O)O)NC2=O` (stereo partly drawn) [I-430, Ac-PL3-Asp-Ala-B5-Asp-Glu-Ala-Ala-3Thi-Gln-S8-3FF-BztA-His-NH2], for which the IC50 in data set [1] (setting [3]) is 154 nM. The compound further came in with a chromatographic logD in data set [2] of 2.13.
The matching figures for `CC(=O)N1CCC[C@]12CC=CCCCC1(CCCC=CCCCCCC[C@@](C)(C(=O)N[C@@H](Cc3ccccc3)C(=O)N[C@@H](Cc3csc4ccccc34)C(=O)N[C@@H](CCC(N)=O)C(N)=O)NC(=O)[C@H](CC(N)=O)NC(=O)[C@H](Cc3ccccc3F)NC(=O)[C@H](C)NC(=O)[C@H](C)NC(=O)[C@H](CCC(=O)O)NC(=O)[C@H](CC(=O)O)NC1=O)NC(=O)[C@H](C)NC(=O)[C@H](CC(=O)O)NC2=O` (stereo partly drawn) [I-453, Ac-PL3-Asp-Ala-B5-Asp-Glu-Ala-Ala-2FF-Asn-S8-Phe-BztA-Gln-NH2]: 1550 nM and 2.01.
The matching figures for `CC(=O)N1CCC[C@]12CC=CCCCC1(CCCC=CCCCCCC[C@@](C)(C(=O)N[C@@H](Cc3ccccc3)C(=O)N[C@@H](Cc3csc4ccccc34)C(=O)N[C@@H](CCC(N)=O)C(N)=O)NC(=O)[C@H](CC(N)=O)NC(=O)[C@H](Cc3cccc(F)c3)NC(=O)[C@H](C)NC(=O)[C@H](C)NC(=O)[C@H](CCC(=O)O)NC(=O)[C@H](CC(=O)O)NC1=O)NC(=O)[C@H](C)NC(=O)[C@H](CC(=O)O)NC2=O` (stereo partly drawn) [I-454, Ac-PL3-Asp-Ala-B5-Asp-Glu-Ala-Ala-3FF-Asn-S8-Phe-BztA-Gln-NH2]: 125 nM and 2.05.
The matching figures for `CC(=O)N1CCC[C@]12CC=CCCCC1(CCCC=CCCCCCC[C@@](C)(C(=O)N[C@@H](Cc3ccccc3)C(=O)N[C@@H](Cc3csc4ccccc34)C(=O)N[C@@H](CCC(N)=O)C(N)=O)NC(=O)[C@H](CC(N)=O)NC(=O)[C@H](Cc3ccc(F)cc3)NC(=O)[C@H](C)NC(=O)[C@H](C)NC(=O)[C@H](CCC(=O)O)NC(=O)[C@H](CC(=O)O)NC1=O)NC(=O)[C@H](C)NC(=O)[C@H](CC(=O)O)NC2=O` (stereo partly drawn) [I-455, Ac-PL3-Asp-Ala-B5-Asp-Glu-Ala-Ala-4FF-Asn-S8-Phe-BztA-Gln-NH2]: 83.5 nM and 2.04.
As to `CC(=O)N1CCC[C@]12CC=CCCCC1(CCCC=CCCCCCC[C@@](C)(C(=O)N[C@@H](Cc3ccccc3)C(=O)N[C@@H](Cc3csc4ccccc34)C(=O)N[C@@H](CCC(N)=O)C(N)=O)NC(=O)[C@H](CC(N)=O)NC(=O)[C@H](Cc3ccccc3C)NC(=O)[C@H](C)NC(=O)[C@H](C)NC(=O)[C@H](CCC(=O)O)NC(=O)[C@H](CC(=O)O)NC1=O)NC(=O)[C@H](C)NC(=O)[C@H](CC(=O)O)NC2=O` (stereo partly drawn) [I-456, Ac-PL3-Asp-Ala-B5-Asp-Glu-Ala-Ala-2MeF-Asn-S8-Phe-BztA-Gln-NH2], the IC50 in data set [1] (setting [3]) and in data set [1] (read-out: FP EC50) was 2170 nM in each case. In data set [2], the “CHI Log D” value was 2.0045.
With `CC(=O)N1CCC[C@]12CC=CCCCC1(CCCC=CCCCCCC[C@@](C)(C(=O)N[C@@H](Cc3ccccc3)C(=O)N[C@@H](Cc3csc4ccccc34)C(=O)N[C@@H](CCC(N)=O)C(N)=O)NC(=O)[C@H](CC(N)=O)NC(=O)[C@H](Cc3ccccc3C)NC(=O)[C@H](C)NC(=O)[C@H](C)NC(=O)[C@H](CCC(=O)O)NC(=O)[C@H](CC(=O)O)NC1=O)NC(=O)[C@H](C)NC(=O)[C@H](CC(=O)O)NC2=O` (stereo partly drawn) [I-457, Ac-PL3-Asp-Ala-B5-Asp-Glu-Ala-Ala-2MeF-Asn-S8-Phe-BztA-Gln-NH2], the IC50 in data set [1] (setting [3]) and in data set [1] (read-out: FP EC50) was 1440 nM in each case. Besides, in data set [2], the “CHI Log D” value is on record as 2.0242.
As for `CC(=O)N1CCC[C@]12CC=CCCCC1(CCCC=CCCCCCC[C@@](C)(C(=O)N[C@@H](Cc3ccccc3)C(=O)N[C@@H](Cc3csc4ccccc34)C(=O)N[C@@H](CCC(N)=O)C(N)=O)NC(=O)[C@H](CC(N)=O)NC(=O)[C@H](Cc3cccc(C)c3)NC(=O)[C@H](C)NC(=O)[C@H](C)NC(=O)[C@H](CCC(=O)O)NC(=O)[C@H](CC(=O)O)NC1=O)NC(=O)[C@H](C)NC(=O)[C@H](CC(=O)O)NC2=O` (stereo partly drawn) [I-458, Ac-PL3-Asp-Ala-B5-Asp-Glu-Ala-Ala-3MeF-Asn-S8-Phe-BztA-Gln-NH2], the IC50 in data set [1] (setting [3]) was 102 nM. For the same compound, the chromatographic logD in data set [2] came to 2.07.
The matching figures for `CC(=O)N1CCC[C@]12CC=CCCCC1(CCCC=CCCCCCC[C@@](C)(C(=O)N[C@@H](Cc3ccccc3)C(=O)N[C@@H](Cc3csc4ccccc34)C(=O)N[C@@H](CCC(N)=O)C(N)=O)NC(=O)[C@H](CC(N)=O)NC(=O)[C@H](Cc3ccc(C)cc3)NC(=O)[C@H](C)NC(=O)[C@H](C)NC(=O)[C@H](CCC(=O)O)NC(=O)[C@H](CC(=O)O)NC1=O)NC(=O)[C@H](C)NC(=O)[C@H](CC(=O)O)NC2=O` (stereo partly drawn) [I-459, Ac-PL3-Asp-Ala-B5-Asp-Glu-Ala-Ala-4MeF-Asn-S8-Phe-BztA-Gln-NH2]: 183 nM and 2.06.
For `CC(=O)N1CCC[C@]12CC=CCCCC1(CCCC=CCCCCCC[C@@](C)(C(=O)N[C@@H](Cc3ccccc3)C(=O)N[C@@H](Cc3csc4ccccc34)C(=O)N[C@@H](CCC(N)=O)C(N)=O)NC(=O)[C@H](CC(N)=O)NC(=O)[C@H](Cc3ccco3)NC(=O)[C@H](C)NC(=O)[C@H](C)NC(=O)[C@H](CCC(=O)O)NC(=O)[C@H](CC(=O)O)NC1=O)NC(=O)[C@H](C)NC(=O)[C@H](CC(=O)O)NC2=O` (stereo partly drawn) [I-460, Ac-PL3-Asp-Ala-B5-Asp-Glu-Ala-Ala-2FurA-Asn-S8-Phe-BztA-Gln-NH2] the same measures were 195 nM and 1.99.
The matching figures for `CC(=O)N1CCC[C@]12CC=CCCCC1(CCCC=CCCCCCC[C@@](C)(C(=O)N[C@@H](Cc3ccccc3)C(=O)N[C@@H](Cc3csc4ccccc34)C(=O)N[C@@H](CCC(N)=O)C(N)=O)NC(=O)[C@H](CC(N)=O)NC(=O)[C@H](Cc3ccc(N)cc3)NC(=O)[C@H](C)NC(=O)[C@H](C)NC(=O)[C@H](CCC(=O)O)NC(=O)[C@H](CC(=O)O)NC1=O)NC(=O)[C@H](C)NC(=O)[C@H](CC(=O)O)NC2=O` (stereo partly drawn) [I-461, Ac-PL3-Asp-Ala-B5-Asp-Glu-Ala-Ala-4AmPhe-Asn-S8-Phe-BztA-Gln-NH2]: 125 nM and 1.94.
In the case of `CC(=O)N1CCC[C@]12CC=CCCCC1(CCCC=CCCCCOC(=O)N3CC[C@@](C(=O)N[C@@H](Cc4ccccc4)C(=O)N[C@@H](Cc4csc5ccccc45)C(=O)N[C@@H](CCC(N)=O)C(N)=O)(C3)NC(=O)[C@H](CC(N)=O)NC(=O)[C@H](Cc3ccccc3)NC(=O)[C@H](C)NC(=O)[C@H](C)NC(=O)[C@H](CCC(=O)O)NC(=O)[C@H](CC(=O)O)NC1=O)NC(=O)[C@H](C)NC(=O)[C@H](CC(=O)O)NC2=O` (stereo partly drawn) [I-463, Ac-PL3-Asp-Ala-B5-Asp-Glu-Ala-Ala-Phe-Asn-PyrS3-Phe-BztA-Gln-NH2], the IC50 in data set [1] (setting [3]) and in data set [1] (read-out: FP EC50) was 92 nM in each case. For the same compound, in data set [2], the “CHI Log D” value came to 1.785.
With `CC(=O)N1CCC[C@]12CC=CCCCC1(CCCC=CCCCCOC(=O)N3CC[C@@](C(=O)N[C@@H](Cc4ccccc4)C(=O)N[C@@H](Cc4csc5ccccc45)C(=O)N[C@@H](CCC(N)=O)C(N)=O)(C3)NC(=O)[C@H](CC(N)=O)NC(=O)[C@H](Cc3ccccc3)NC(=O)[C@H](C)NC(=O)[C@H](C)NC(=O)[C@H](CCC(=O)O)NC(=O)[C@H](CC(=O)O)NC1=O)NC(=O)[C@H](C)NC(=O)[C@H](CC(=O)O)NC2=O` (stereo partly drawn) [I-464, Ac-PL3-Asp-Ala-B5-Asp-Glu-Ala-Ala-Phe-Asn-PyrS3-Phe-BztA-Gln-NH2], the IC50 in data set [1] (setting [3]) and in data set [1] (read-out: FP EC50) was 57 nM in each case. Besides, in data set [2], the “CHI Log D” value is 1.831.
